Two compounds from patent US20180078576A1, “SULPHATED XYLANS FOR TREATMENT OR PROPHYLAXIS OF RESPIRATORY DISEASES” (Paradigm Biopharmaceuticals Limited, priority 2007, published 2018) can be followed below.

The test system of experiment [1] is Guinea-pigs sensitized to ovalbumin. The experiment can be described thus: Guinea pig model of asthma, airway hyper-reactivity 24 h after OVA challenge. As to conditions: Dexamethasone 15 mg/kg, glycan compounds 10 mg/kg, intratracheal microspray. The class given is in vivo. The method, then:
A guinea pig model of asthma was used. Guinea-pigs (8 per group) were sensitized to ovalbumin by two intraperitoneal injections of ovalbumin (grade V, 20 μg) in aluminium hydroxide gel on Days 1 and 11. On day 20 (24 hours prior to assessing airway hyper-reactivity (AHR)) each animal received a challenge dose of OVA—this took the form of a 1 hour aerosol exposure of OVA (10 μg). The negative control animals received, no sensitization and no challenge. The positive controls were sensitized and challenged but were either given no further treatment or were treated with vehicle (saline). Test compounds (PPS and the sulfated xylan pentasaccharide) and vehicle were administered by intratracheal administration as an aqueous microspray using a Penn Century device. The device used was the FMJ250 high pressure syringe and a 1A-1C microspray delivery tube. The particle size delivery goes up to 32 μm. During the study the volume delivered was 100 ul for all test formulations. The test compounds were administered 30 min before challenge with OVA. The animals underwent surgery 24 hours after challenge to insert a cannula into the trachea, the cannula was connected to the instrumentation which measured pressure and changes in airflow. After surgery the animals were allowed to stabilize for 10 min before baseline readings were taken. Bronchoconstriction was evoked with aerosolized methacholine (10 mg/ml and 30 mg/ml) for 20 seconds. The difference between baseline readings and that obtained after methacholine were used to calculate Cdyn and RL. Thus, measurements of lung function were taken approximately 25 hours after the drug was administered. Both pentosan polysulfate and the sulfated xylan pentasaccharide when administered at 10 mg/kg were effective in reducing the airway hyper-reactivity readings. Their efficacy was approximately equivalent to that usually seen with 7.5 mg/kg of dexamethasone in this model.

Experiment [2] addresses T1, recombinant human IL-5 (rhIL-5) (Homo sapiens, UniProt P05113).
T1 construct: made in house; host or cells: baculovirus expression system
T1 sequence (P05113 20-134): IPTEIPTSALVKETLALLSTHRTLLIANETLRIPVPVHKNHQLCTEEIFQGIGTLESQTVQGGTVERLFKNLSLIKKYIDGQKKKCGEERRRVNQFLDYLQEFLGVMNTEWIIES
The experiment can be described thus: BIAcore inhibition of IL-5 binding to immobilized heparin. As to conditions: BIAcore chip, titration, FIG. 3B. The source says: (§1) The optical phenomenon of surface plasmon resonance is used to monitor physical interactions between molecules. Passing a solution of a potential protein ligand (e.g. IL-4, IL-5 or eotaxin) over a sensor surface to which a target (e.g. heparin) is coupled monitors the real-time binding of protein ligands to the immobilized target. Detection is achieved by measuring refractive index changes very close to the sensor surface. When the refractive index is altered, the angle at which plasmon resonance occurs changes and this change directly correlates with the amount of protein interacting with the surface. A BIAcore 2000 is conveniently used. […]
(§2) Biotinylated heparin is immobilized on the biosensor chip. […] Solutions containing potential protein ligands of interest are injected over the sensor chip surface, and the binding is measured in real time (Fernig, In: Proteoglycan protocols, Ed. R. V. Iozzo, Humana Press, Totowa, N.J., USA, 2001). Baculovirus expressed recombinant human IL-4 (rhIL-4) and baculovirus expressed recombinant human IL-5 (rhIL-5) readily bind to heparin immobilized by this method (see PCT/AU2005/000551). […] Similarly, recombinant human eotaxin (CCL11) expressed in E. coli binds readily to immobilized heparin and binding is specific as there is little eotaxin binding to sensor chips lacking heparin. […]
(In SPR one partner is held on a chip, and binding of the other changes the refractive index at the surface.)

For the next experiment, the target named is T2, Human leukocyte elastase (Homo sapiens, UniProt P08246).
T2 sequence (P08246 30-267): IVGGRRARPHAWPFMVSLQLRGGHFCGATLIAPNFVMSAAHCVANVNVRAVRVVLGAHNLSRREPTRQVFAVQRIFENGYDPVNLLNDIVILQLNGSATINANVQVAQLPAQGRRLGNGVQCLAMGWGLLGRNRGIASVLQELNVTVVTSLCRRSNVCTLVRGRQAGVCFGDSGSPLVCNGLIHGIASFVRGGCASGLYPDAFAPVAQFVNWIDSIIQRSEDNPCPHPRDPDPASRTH
The experiment can be described thus: Elastase assay with fluorogenic substrate. It counts as biochemical. Conditions: fluorogenic substrate MeOSuc-Ala-Ala-Pro-Val-amido-methylcoumarin, pH 7.4, 37° C., 60 minutes; read-out: IC50, inhibition of human leukocyte elastase activity. The method, then:
Elastase is a protein that is a potential target for the treatment of COPD. Elastase assays were performed in 96-well plastic microplates for easy quantification by the fluorescent plate reader. Human leukocyte elastase (5 nM/well) was incubated in the presence of absence of pentosan polysulfate, or other sulfated polysaccharides, with the fluorogenic substrate MeOSuc-Ala-Ala-Pro-Val-amido-methylcoumarin (20 μM/well) in a sodium phosphate buffer, pH 7.4. The mixture was incubated at 37° C. for 60 minutes before the reaction was stopped by the addition of 10 μl/well of […] acetic acid and the mixture transferred to a 96-well microplate with fluorescence being measured using an excitation wavelength of 355 nm and an emission wavelength of 460 nm. Various concentrations of inhibitors were used to allow the calculation of the concentration of polysaccharide required to inhibit enzyme activity by 50% (IC50).

In experiment [3] the target is T3, recombinant human eotaxin (CCL11) (Homo sapiens, UniProt P51671).
T3 construct: host or cells: E. coli
T3 sequence (P51671 24-97): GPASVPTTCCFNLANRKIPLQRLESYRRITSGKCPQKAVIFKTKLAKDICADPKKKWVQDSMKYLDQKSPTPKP
The experiment can be described thus: BIAcore inhibition of eotaxin-1 binding to immobilized heparin. Conditions: BIAcore chip, FIG. 3D.
Text: as §1, §2

Marks after values point to notes of the source that are not given here.

As for `C[C@@H]1C[C@H]2[C@@H]3CCC4=CC(=O)C=C[C@]4(C)[C@@]3(F)[C@@H](O)C[C@]2(C)[C@@]1(O)C(=O)CO` [Dexamethasone], in experiment [1] (MCh 10 mg/ml), the “Cdyn, % increase from that of the positive control” value turned out to be 76.5% ** and the “RL, % decrease from that of the positive control” value amounted to 93.9% **. Also, in experiment [1] (MCh 30 mg/ml), the “Cdyn, % increase from that of the positive control” value was found to be 84.8% **^ and the “RL, % decrease from that of the positive control” value came out at 86% **.

Usually IC50 stands for the concentration that inhibits the measured activity by half. Turning to heparin, the IC50 in experiment [2] was 30 to 100 nM; on Human leukocyte elastase it was about 200 nM; in experiment [3], about 160 nM.
